# Experiments:
# ARE (HepG2-ARE-C8 cells) = assay: ARE luciferase reporter assay; assay type: cell-based; conditions: for Luciferase reporter activity (fold of induction): HepG2-ARE-C8 cells, 12 hrs
# Description: ARE Luciferase Reporter Assay
# 100 μL was added to a 96-well microtiter plate and incubated overnight.
# (2) 2 times of the desired concentration of the test compound was formulated in a culture medium, and 100 μL was added respectively to the corresponding wells. tBHQ was used as a positive control and DMSO was used as a negative control. The 96-well microtiter plate added with the compound was incubated for 12 hrs at a constant temperature of 37° C., 5% CO2, and saturated humidity.
# (3) The 5× lysis buffer in the Luciferase Assay Kit was formulated into a 1× lysis buffer for future use.
# (4) The 96-well microtiter plate was removed, the medium was aspirated from the wells, the cells were washed with 1×PBS buffer, and the PBS buffer was aspirated off after the wash. […] After the lysis, the lysate was stood for 3-5 min, and 20 μL of the lysate supernatant was aspirated into a corresponding 96-well white plate.
# (5) The 96-well white plate was positioned in the Thermo Scientific Luminoskan Ascent Chemiluminescence Micropore Reader. 100 μL of a luciferase assay reagent (obtained by uniformly mixing 1 bottle of luciferase assay substrate in the luciferase assay kit and 1 bottle of luciferase detection buffer) was added to each well before the test, and the plate was read within 1 min after the test reagent was added.
# [1] = target: Keap1-Nrf2 protein-protein interaction (Keap1 Kelch domain protein, FITC-9mer Nrf2 polypeptide probe) (Homo sapiens (Human), UniProt Q14145); assay: Fluorescence polarization-based Keap1-Nrf2 protein-protein interaction inhibition experiment (FP experiment); assay type: binding; conditions: for IC50: FP experiment, Keap1 Kelch domain, FITC-9mer Nrf2 probe
# Chain of Keap1-Nrf2 protein-protein interaction (Keap1 Kelch domain protein, FITC-9mer Nrf2 polypeptide probe) (Q14145 321-609): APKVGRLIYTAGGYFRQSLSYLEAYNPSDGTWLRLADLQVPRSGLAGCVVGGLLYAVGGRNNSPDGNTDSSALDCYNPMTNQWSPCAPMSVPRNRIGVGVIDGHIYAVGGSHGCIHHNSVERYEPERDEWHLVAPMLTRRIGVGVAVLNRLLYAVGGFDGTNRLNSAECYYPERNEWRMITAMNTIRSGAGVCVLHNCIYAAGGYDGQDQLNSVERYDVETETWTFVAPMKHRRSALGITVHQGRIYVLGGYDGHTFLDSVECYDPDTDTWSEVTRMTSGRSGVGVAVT
# Description: Fluorescence Polarization-Based Keap1-Nrf2 Protein-Protein Interaction Inhibition Experiment (FP Experiment)
# The instrument used in the FP experiment was the SpectraMax Multi-Mode Microplate Reader (Molecular Devices), and the excitation and emission wavelengths of the instrument were selected based on the corresponding fluorophore.
# Before the test, the system was mixed well and incubated for 30 minutes at room temperature. […] In this study, the fluorescence intensities in horizontal and vertical directions (F∥ and F^⊥) were used to calculate the millipolarization value (mP), so as to reflect the changes of the polarized light.
# where Pmax, Pmin, and Pobs represent the polarization value in the well containing Keap1 and the fluorescence probe, the polarization value in the well containing the fluorescence probe, and the polarization value of the well containing the inhibitor, respectively. The IC50 of the compounds was calculated from curve of the inhibition rate against the inhibitor concentration.
Molecule,Luciferase reporter activity (fold of induction) (ARE (HepG2-ARE-C8 cells); 0.1 μmol/L),Luciferase reporter activity (fold of induction) (ARE (HepG2-ARE-C8 cells); 1 μmol/L),Luciferase reporter activity (fold of induction) (ARE (HepG2-ARE-C8 cells); 10 μmol/L),IC50 [1] [nM],FP activity compared with the positive control Nrf2 9mer polypeptide [1],fold of induction compared with the positive control tBHQ (ARE (HepG2-ARE-C8 cells); 10 μM)
"O=C(O)CN(c1ccc(OC(C(=O)O)c2ccccc2)c2ccccc12)S(=O)(=O)c1ccc([N+](=O)[O-])cc1 (stereo not shown) [Compound I-8, 2-(4-(N-(carboxymethyl)-4-nitrobenzenesulfonamido))naphthalen-1-oxy) benzeneacetate]",1.05 fold of induction,1.23 fold of induction,1.14 fold of induction,4790,–,–
COc1cc(OC)c(S(=O)(=O)N(CC(=O)O)c2ccc(OC(C(=O)O)c3ccc(F)cc3)c3ccccc23)c(OC)c1 (stereo not shown) [Compound I-18],1.03 fold of induction,1.42 fold of induction,1.57 fold of induction,310,–,–
"3-(4-((N-carboxymethyl)-2,4,6-trimethylbenzenesulfonamido)naphthalen-1-yloxy)-(4-methoxyphenyl)propionic acid [Compound I-20]",1.02 fold of induction,1.13 fold of induction,1.28 fold of induction,830,–,–
O=C(O)CN(c1ccc(OC(C(=O)O)c2ccccc2)c2ccccc12)S(=O)(=O)c1ccc(F)cc1 (stereo not shown) [Compound I-9],1.02 fold of induction,1.13 fold of induction,1.08 fold of induction,5160,–,–
CC(=O)Nc1ccc(C(Oc2ccc(N(CC(=O)O)S(=O)(=O)c3c(C)cc(C)cc3C)c3ccccc23)C(=O)O)cc1 (stereo not shown) [Compound I-16],1.21 fold of induction,1.98 fold of induction,3.23 fold of induction,90,better than the positive control,–
CC(C)(C)c1ccc(S(=O)(=O)N(CC(=O)O)c2ccc(OC(C(=O)O)c3ccccc3)c3ccccc23)cc1 (stereo not shown) [Compound I-4],1.04 fold of induction,1.12 fold of induction,1.13 fold of induction,980,–,–
"Cc1cc(C)c(S(=O)(=O)N(Cc2nn[nH]n2)c2ccc(Oc3ccccc3CC(=O)O)c3ccccc23)c(C)c1 [Compound I-12, 2-(4-((N-(2H-tetrazol-5-yl)methyl)-2,4,6-trimethylbenzenesulfonamido)naphthalen-1-oxy)benzeneacetic acid]",1.05 fold of induction,1.19 fold of induction,1.36 fold of induction,830,–,–
"CC(C)(C)c1cc(O)ccc1O [tBHQ, t-butylhydroquinone, reference compound]",1.46 fold of induction,1.38 fold of induction,3.61 fold of induction,–,–,–
COc1cc(OC)c(S(=O)(=O)N(CC(=O)O)c2ccc(OC(C(=O)O)c3ccc(OC(C)C)cc3)c3ccccc23)c(OC)c1 (stereo not shown) [Compound I-17],1.39 fold of induction,1.39 fold of induction,2.07 fold of induction,320,–,–
Cc1cc(C)c(S(=O)(=O)N(CC(=O)O)c2ccc(Oc3ccccc3CC(=O)O)c3ccccc23)c(C)c1 [Compound I-3],0.95 fold of induction,1.03 fold of induction,1.31 fold of induction,580,–,–
"2-(4-(2,4,6-trimethyl-N-(2-(hydroxylamino)-2-oxoethylbenzenesulfonamido) naphthalen-1-oxy)-benzeneacetic acid [Compound I-13]",1.07 fold of induction,1.16 fold of induction,1.21 fold of induction,980,–,–
CCOc1ccc(C(Oc2ccc(N(CC(=O)O)S(=O)(=O)c3c(C)cc(C)cc3C)c3ccccc23)C(=O)O)cc1 (stereo not shown) [Compound I-15],1.33 fold of induction,2.05 fold of induction,3.92 fold of induction,84,better than the positive control,significantly higher than that of the positive control tBHQ
O=C(O)Cc1ccccc1Oc1ccc(N(CC(=O)O)S(=O)(=O)c2ccc(C(F)(F)F)cc2)c2ccccc12 [Compound I-10],0.92 fold of induction,0.95 fold of induction,1.10 fold of induction,6660,–,–
COc1cc(OC)c(S(=O)(=O)N(CC(=O)O)c2ccc(OC(C(=O)O)c3ccccc3)c3ccccc23)c(OC)c1 (stereo not shown) [Compound I-6],1.01 fold of induction,1.26 fold of induction,1.09 fold of induction,640,–,–
COc1ccc(S(=O)(=O)N(CC(=O)O)c2ccc(Oc3ccccc3CC(=O)O)c3ccccc23)cc1OC [Compound I-5],0.92 fold of induction,1.05 fold of induction,1.10 fold of induction,2300,–,–
COc1ccc(S(=O)(=O)N(CC(=O)O)c2ccc(Oc3ccccc3CC(=O)O)c3ccccc23)cc1 [Compound I-1],0.98 fold of induction,1.10 fold of induction,1.07 fold of induction,2280,–,–
"2-(4-(2,4,6-trimethylbenzenesulfonamido)naphthalen-1-yl)oxy)-2-benzeneacetic acid [Compound I-2]",1.21 fold of induction,1.10 fold of induction,1.05 fold of induction,1320,–,–
CC(=O)Nc1ccc(S(=O)(=O)N(CC(=O)O)c2ccc(Oc3ccccc3CC(=O)O)c3ccccc23)cc1 [Compound I-7],0.97 fold of induction,1.01 fold of induction,1.03 fold of induction,5230,–,–
"2-(4-(2,4,6-trimethylbenzenesulfonamido)naphthalen-1-oxy)benzeneacetic acid [Compound I-11]",1.02 fold of induction,1.34 fold of induction,1.14 fold of induction,2430,–,–
"COc1ccc(C(Oc2ccc(N(Cc3nn[nH]n3)S(=O)(=O)c3c(C)cc(C)cc3C)c3ccccc23)C(=O)O)cc1 (stereo not shown) [Compound I-19, 2-(4-((N-(2H-tetrazol-5-yl)methyl)-2,4,6-trimethylbenzenesulfonamido)naphthalen-1-oxy)-(4-methoxyphenyl)acetic acid]",0.97 fold of induction,1.43 fold of induction,2.58 fold of induction,140,–,–
